Patent publication US5312816A, “Method of combatting osteoporosis in mammalian subjects, utilizing organic boron compounds” (priority 1993, dated 1994)
Where a name gives a salt, the structure may show the parent alone. Read-outs that look alike come from different tables or passages of the source.

What was measured:
Acid phosphatase [1] = experiment: Mouse hepatic lysosomal acid phosphatase activity; type: biochemical; settings: mouse hepatic, 60 min incubation
From the text: (§1) 1. Cf1 male mouse hepatic 10% homogenates in 0.25M sucrose+0.001MEDTA,pH 7.2.
(§2) Lysosomal Enzymes - free and total [triton X-100].
(§3) 1. Acid phosphatase -beta glycerol-3-phosphate, pH 5.0, released IP 720 nm.
Acid phosphatase activity -

Cathepsin D [2] = target: T1, Cathepsin D (Mus musculus, UniProt P18242); experiment: Mouse hepatic lysosomal cathepsin D activity; type: biochemical
T1 construct: azocasein assay pH 5.0
T1 sequence (P18242 65-410): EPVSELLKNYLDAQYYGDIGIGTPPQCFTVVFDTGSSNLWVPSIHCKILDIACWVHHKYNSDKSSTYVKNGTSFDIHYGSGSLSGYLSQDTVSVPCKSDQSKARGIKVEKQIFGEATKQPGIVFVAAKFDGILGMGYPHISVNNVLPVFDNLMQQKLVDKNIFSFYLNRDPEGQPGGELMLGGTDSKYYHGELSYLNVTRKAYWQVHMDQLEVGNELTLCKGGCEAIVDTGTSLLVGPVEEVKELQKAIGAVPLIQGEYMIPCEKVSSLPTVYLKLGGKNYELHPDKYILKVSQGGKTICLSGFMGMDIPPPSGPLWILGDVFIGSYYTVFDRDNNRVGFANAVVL
From the text: as §1, §2
(§4) 2. Acid Cathepsin D -azocasein-pH 5.0, hydrolytic azo-peptide produce 366 nm.
Cathepsin azo casein activity -

Prostaglandin synthetase = target: T2, Prostaglandin synthetase (Bos taurus, UniProt O62664); experiment: Prostaglandin synthetase (cyclooxygenase), purified beef seminal vesicle; type: biochemical; settings: Table IX; commercial enzyme preparation; read-out: Beef Prostaglandin Cyclooxygenase IC50
T2 construct: Prostaglandin synthetase purified beef seminal vesicle; from tissue
T2 sequence (O62664 25-600): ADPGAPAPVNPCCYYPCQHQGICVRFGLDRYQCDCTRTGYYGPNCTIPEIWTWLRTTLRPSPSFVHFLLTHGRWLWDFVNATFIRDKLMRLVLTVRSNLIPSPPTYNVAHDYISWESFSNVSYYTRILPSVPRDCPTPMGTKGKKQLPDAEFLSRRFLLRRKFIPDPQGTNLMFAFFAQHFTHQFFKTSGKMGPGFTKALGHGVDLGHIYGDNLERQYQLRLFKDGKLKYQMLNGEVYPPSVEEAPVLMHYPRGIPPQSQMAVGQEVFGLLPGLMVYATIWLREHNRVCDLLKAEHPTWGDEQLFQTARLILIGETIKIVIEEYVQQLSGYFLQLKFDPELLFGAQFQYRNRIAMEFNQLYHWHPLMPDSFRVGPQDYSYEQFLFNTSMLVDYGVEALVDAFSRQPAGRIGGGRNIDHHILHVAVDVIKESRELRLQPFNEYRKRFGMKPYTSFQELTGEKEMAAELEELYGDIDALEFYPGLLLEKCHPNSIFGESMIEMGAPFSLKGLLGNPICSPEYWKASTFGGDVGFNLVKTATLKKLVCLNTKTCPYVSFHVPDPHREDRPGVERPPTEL
From the text: (§5) Prostaglandin synthetase purified beef seminal vesicle ^3 H arachidonic acid (86.2 Ci/mmol), tlc separation.

Cathepsin D [3] = target: T3, Cathepsin D (Homo sapiens, UniProt P07339); experiment: Human osteoporosis fibroblasts cathepsin D (azo-casein) activity; type: cell-based; settings: Table X; human osteoporosis fibroblasts, DMEM +10% FCS + P/S; read-out: Cathepsin D IC50
T3 construct: azocasein assay pH 5.0
T3 sequence (P07339 65-412): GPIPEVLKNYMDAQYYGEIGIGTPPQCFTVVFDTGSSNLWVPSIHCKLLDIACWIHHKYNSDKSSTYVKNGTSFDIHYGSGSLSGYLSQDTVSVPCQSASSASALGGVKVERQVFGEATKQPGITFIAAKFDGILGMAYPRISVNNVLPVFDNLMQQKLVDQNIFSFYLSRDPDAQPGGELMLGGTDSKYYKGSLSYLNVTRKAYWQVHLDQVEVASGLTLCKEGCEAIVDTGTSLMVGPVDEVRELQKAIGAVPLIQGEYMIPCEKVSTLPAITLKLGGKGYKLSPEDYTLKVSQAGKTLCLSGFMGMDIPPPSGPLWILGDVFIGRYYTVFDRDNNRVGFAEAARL
From the text: Osteoporosis Human Fibroblast-CRL-1140, Be SA1

Acid phosphatase [4] = experiment: Human osteoporosis fibroblasts acid phosphatase activity; type: cell-based; settings: read-out: Acid Phosphatase IC50; Table X; human osteoporosis fibroblasts
From the text: as §3

Aryl sulphatase [5] = experiment: Human osteoporosis fibroblasts aryl sulphatase activity; type: cell-based; settings: read-out: Aryl Sulphatase IC50; Table X; human osteoporosis fibroblasts
From the text: (§6) 3. Aryl sulphatase- p-nitrocatechol sulfate, pH
(§7) 5. 8 p-nitro-catechol product 510 nm.

Cf1 male mice [6] = experiment: Writhing reflex, 0.6% acetic acid; type: in vivo; settings: Mus musculus, ip; Table IV; 8 mg/kg I.P.
Cf1 male mice [7] = experiment: Anti-inflammatory screen, Winter's test, 2% carrageenan hind foot; type: in vivo; settings: Table XIV; unit inferred; unit assumed
Experimental: Anti-inflammatory Screen- Cf1 - male mice-Winter's Test 2% carrageenan S.C. plantar surface of hind foot, drugs administered @8 or 10 mg/kg I.P. 2X
Winter, C.A., et al, Proc. Soc.

Cf1 male mice [8] = experiment: Writhing reflex, 0.6% acetic acid; type: in vivo; settings: Table XIV; unit inferred; unit assumed
Experimental: Writhing reflex- Cf1 -male mice- 0.6% acetic acid I.P. drugs administered @20 mg/kg/ I.P. 20 min. later - the # of stretches/10 min.
Hendershot, L.C., et al, J.

Aryl sulphatase [9] = experiment: Mouse hepatic lysosomal aryl sulphatase activity; type: biochemical; settings: Table XV, 60 min incubation
From the text: as §1, §2, §6, §7

Trypsin [10] = experiment: Mouse hepatic trypsin activity; type: biochemical; settings: Table XVI; 60 min incubation; read-out: Mouse Hepatic Trypsin IC50
From the text: as §1
1. Trypsin- N-benzoyl-L-arginine ethyl ester pH 8.0, hydrolytic product 253 nm.

Cathepsin D [11] = target: T1, Cathepsin D; experiment: Mouse macrophage cathepsin D activity; type: cell-based; settings: Table XVII; mouse macrophage, 60 min incubation; read-out: Cathepsin D pH 5.0 IC50
From the text: (§8) 3. Mouse macrophages J774A.1 BALB/c
as §4

Acid phosphatase [12] = experiment: Mouse macrophage acid phosphatase activity; type: cell-based; settings: Table XVII; mouse macrophage, 60 min incubation; read-out: Acid Phosphatase IC50
Aryl sulphatase [13] = experiment: Mouse macrophage aryl sulphatase activity; type: cell-based; settings: Table XVII; mouse macrophage, 60 min incubation; read-out: Aryl Sulphatase IC50
Trypsin [14] = experiment: Mouse macrophage trypsin (BAEE) activity; type: cell-based; settings: Table XVIII; mouse macrophage, 60 min incubation; read-out: Trypsin BAEE IC50
Elastase = experiment: Mouse macrophage elastase activity; type: cell-based; settings: Table XVIII; mouse macrophage, 60 min incubation; read-out: Elastase IC50
From the text: Elastase- N-succinyl-L-alanyl-L-alanine-p-nitroanilide, pH 8.0, p-nitro anilide 410 nm.

[15] = target: Prostaglandin cyclooxygenase; experiment: Mouse macrophage prostaglandin cyclooxygenase activity; type: cell-based; settings: Table XVIII; mouse macrophage, 60 min incubation; read-out: Prostaglandin Cyclooxygenase IC50
From the text: as §8, §5

Cf1 male mice [16] = experiment: Hot plate tail flick test; type: in vivo; settings: Table XIV; unit not given
Pg. cyclooxygenase = target: T4, Pg. cyclooxygenase (Sus scrofa, UniProt A0A287ANF9); experiment: Porcine seminal vesicles Pg. cyclooxygenase; type: biochemical
T4 construct: Porcine Seminal; from tissue; the methods section prints beef seminal vesicle
T4 sequence (A0A287ANF9 25-600): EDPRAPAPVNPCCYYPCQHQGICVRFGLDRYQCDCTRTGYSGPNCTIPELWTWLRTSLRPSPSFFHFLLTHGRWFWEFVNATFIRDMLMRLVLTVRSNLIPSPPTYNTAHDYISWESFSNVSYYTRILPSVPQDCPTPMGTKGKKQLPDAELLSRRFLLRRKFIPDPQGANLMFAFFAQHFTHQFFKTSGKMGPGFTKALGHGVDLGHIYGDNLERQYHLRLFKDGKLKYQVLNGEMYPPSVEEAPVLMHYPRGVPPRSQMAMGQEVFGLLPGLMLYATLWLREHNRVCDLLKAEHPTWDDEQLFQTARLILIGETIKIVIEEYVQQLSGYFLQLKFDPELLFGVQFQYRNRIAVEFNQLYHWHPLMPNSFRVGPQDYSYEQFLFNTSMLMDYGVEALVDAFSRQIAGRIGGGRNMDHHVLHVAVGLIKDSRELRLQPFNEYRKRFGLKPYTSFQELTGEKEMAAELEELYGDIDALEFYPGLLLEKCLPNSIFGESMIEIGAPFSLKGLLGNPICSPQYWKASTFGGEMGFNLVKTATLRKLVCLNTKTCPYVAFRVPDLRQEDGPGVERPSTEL

Commercial Collagenase = experiment: Commercial collagenase (type not stated); type: biochemical; settings: Table XVI, 60 min incubation
From the text: 3. Collagenase I, Clostridium histolyticum, bone, skin, tendon, blood vessel, dentine, GI. substrate: rat collagen, N-[propionate-2-3-^3 H] propionylated measured as dpm released.
4. Collagenase II, Clostridium histolyticum, cartilage collagen.

5'-Lipoxygenase = target: T5, 5'-Lipoxygenase (Homo sapiens, UniProt P09917); experiment: Human leukocyte 5'-lipoxygenase; type: cell-based
T5 construct: human leukocyte tissue culture cells; endogenous in cells; host or cells: Human peripheral leukocytes, RPMI-1788
T5 sequence (P09917 1-674): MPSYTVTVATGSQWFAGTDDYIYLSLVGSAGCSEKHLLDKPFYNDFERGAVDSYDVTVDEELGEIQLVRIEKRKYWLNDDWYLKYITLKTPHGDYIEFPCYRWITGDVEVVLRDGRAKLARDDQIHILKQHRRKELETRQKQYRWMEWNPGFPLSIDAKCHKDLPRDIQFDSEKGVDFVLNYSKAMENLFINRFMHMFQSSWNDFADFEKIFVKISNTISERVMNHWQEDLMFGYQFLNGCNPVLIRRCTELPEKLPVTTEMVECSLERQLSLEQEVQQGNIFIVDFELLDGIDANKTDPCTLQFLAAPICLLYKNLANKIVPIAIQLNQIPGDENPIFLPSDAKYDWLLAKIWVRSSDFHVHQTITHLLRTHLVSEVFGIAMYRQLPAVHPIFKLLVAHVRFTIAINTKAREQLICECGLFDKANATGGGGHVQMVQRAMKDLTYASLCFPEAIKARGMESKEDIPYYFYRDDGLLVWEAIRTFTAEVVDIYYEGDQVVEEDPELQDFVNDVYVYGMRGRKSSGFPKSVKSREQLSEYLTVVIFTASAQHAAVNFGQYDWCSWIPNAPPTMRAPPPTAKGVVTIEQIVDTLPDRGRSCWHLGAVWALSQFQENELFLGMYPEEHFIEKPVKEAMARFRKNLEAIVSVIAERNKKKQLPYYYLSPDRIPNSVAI

Cathepsin = experiment: Human leukocyte cathepsin; type: cell-based; settings: Table XIX; read-out: Human Leukocyte IC50 (head gives no enzyme; beside Cathepsin D)
From the text: 5. Human peripheral leukocytes, RPMI-1788
as §4

Hydroxyproline = experiment: Serum and urine hydroxyproline levels in vivo; settings: Cf1 male mice, 8 mg/kg/day I.P. 14 days, N=6
Calcium = experiment: Serum and urine calcium levels in vivo; settings: Cf1 male mice, 8 mg/kg/day I.P. 14 days, N=6
Phosphorus = experiment: Serum and urine inorganic phosphorus levels in vivo; settings: Cf1 male mice, 8 mg/kg/day I.P. 14 days, N=6
[17] = Table XV, mouse hepatic, 60 min incubation, read-out: Cathepsin D IC50

SMILES	Anti-Inflammation Cf1 Mice (Cf1 male mice [7])	Writhing Reflex Mice (Cf1 male mice [8])	IC50 (Acid phosphatase [1]; Table XV)	IC50 (Cathepsin D [2]; [17])	IC50 (Aryl sulphatase [9])	IC50 (Trypsin [10])	IC50 (Cathepsin D [11])	IC50 (Acid phosphatase [12])	IC50 (Aryl sulphatase [13])	IC50 (Trypsin [14])	IC50 (Elastase)	IC50 [15]	Tail Flick Mice (Cf1 male mice [16])	Hydroxyproline serum (Hydroxyproline)	Hydroxyproline urine (Hydroxyproline)	Calcium serum (Calcium)	Calcium urine (Calcium)	Phosphorus serum (Phosphorus)	Phosphorus urine (Phosphorus)	further results
O=C(O)[BH2-][n+]1ccccc1 [Compound 15, Pyridine-carboxyborane]																				IC50 (Acid phosphatase [1]; Table V): 10 µM; IC50 (Cathepsin D [2]; Table V, mouse hepatic, 60 min incubation, read-out: Cathepsin D IC50): 4.8 µM; IC50 (Prostaglandin synthetase): 7.6 µM; IC50 (Cathepsin D [3]): 8.16 µM; IC50 (Acid phosphatase [4]): 18.3 µM; IC50 (Aryl sulphatase [5]): 8.16 µM; response vs control in vivo at 8 mg/kg (Cf1 male mice [6]): 50%
CC#N.CO.CO.CO.C[N+](C)(C)[BH2-]C(=O)[O-].C[N+](C)(C)[BH2-]C(=O)[O-].C[N+](C)(C)[BH2-]C(=O)[O-].C[N+](C)(C)[BH2-]C(=O)[O-].C[N+](C)(C)[BH2-]C(=O)[O-].C[N+](C)(C)[BH2-]C(=O)[O-].O=[N+]([O-])[O-].[Fe+3].[Fe+3].[Fe+3].[O-2] [Compound 24]	81.6%	42.9%	5.6 µM	6.84 µM	2.57 µM	9.93 µM	2.85 µM	2.09 µM	1.95 µM	2.37 µM	3.92 µM	2.34 µM	338							IC50 (Pg. cyclooxygenase; Table XVI, 60 min incubation): 2.9 µM; IC50 (Commercial Collagenase): 478 µM
CC(C)[Si](OC[C@H]1O[C@@H](n2cnc3c(N)ncnc32)C[C@@H]1O[Si](C(C)C)(C(C)C)C(C)C)(C(C)C)C(C)C [Compound 35]																				IC50 (Cathepsin D [2]; read-out: Mouse Hepatic Cathepsin D IC50, Table XIX): 58.1 µM; IC50 (5'-Lipoxygenase): 10.1 µM; IC50 (Cathepsin): 33.4 µM
CC[NH2+][BH2-]C(=O)O [CH3 CH2 NH2 BH2 COOH]														89.1 % Control	69.2 % Control	121.0 % Control	61.2 % Control	64.3 % Control	78.0 % Control	
C[N+](C)(C)[BH2-]C(=O)O [Compound 22, Trimethylamine-carboxyborane, sodium salt]	73.4%	76.5%	3.56 µM	6.69 µM	5.15 µM	9.98 µM	1.92 µM	2 µM	1.33 µM	2.27 µM	7.26 µM	2.41 µM	101							IC50 (Pg. cyclooxygenase): 2.4 µM; IC50 (Commercial Collagenase; sodium salt): 490 µM
C[NH2+][BH2-]C(=O)OC [CH3 NH2 BH2 COOCH3, Methylamine-carbomethoxyborane]														68.0 % Control	144.1 % Control	105.1 % Control	176.9 % Control	65.3 % Control	136.8 % Control	
